Measured values as given in ChEMBL document CHEMBL3871268, “Chalcogen containing heterocyclic scaffolds: New hybrids with antitumoral activity” (Eur J Med Chem, 2016).

How the values were obtained:
[1] = Cell cycle arrest in human MCF7 cells assessed as sub-diploid cells at 100 nM measured after 48 hrs by propidium iodide staining-based flow cytometry (reference value: 1.9%); assay type: functional
[2] = Cell cycle arrest in human MCF7 cells assessed as M1 quadrant cells at 100 nM measured after 48 hrs by propidium iodide staining-based flow cytometry (reference value: 98.1%); assay type: functional
[3] = Cell cycle arrest in human MCF7 cells assessed as increase in subdiploid cells at 18 uM after 48 hrs by TUNEL based flow cytometry assay; assay type: functional
[4] = Cell cycle arrest in human MCF7 cells assessed as M1 quadrant cells at 18 uM pretreated with pan-caspase inhibitor Z-VAD-FMK for 1 hr followed by compound addition measured after 48 hrs by propidium iodide staining-based flow cytometry assay (reference value: 98.1%); assay type: functional; set-up: scale not given: the % may be the effect or the level left
[5] = Cell cycle arrest in human MCF7 cells assessed as sub-diploid cells at 18 uM pretreated with pan-caspase inhibitor Z-VAD-FMK for 1 hr followed by compound addition measured after 48 hrs by propidium iodide staining-based flow cytometry assay (reference value: 1.9%); assay type: functional; set-up: scale not given: the % may be the effect or the level left
[6] = Cell cycle arrest in human MCF7 cells assessed as sub-diploid cells at 18 uM pretreated with autophagy inhibitor wortmannin for 1 hr followed by compound addition measured after 48 hrs by propidium iodide staining-based flow cytometry assay (reference value: 1.9%); assay type: functional; set-up: scale not given: the % may be the effect or the level left
[7] = Cell cycle analysis in human MCF7 cells assessed as accumulation at SubG1 phase at 5 uM measured after 24 hrs by propidium iodide staining-based flow cytometry (reference value: 2.6%); assay type: functional
[8] = Cell cycle analysis in human MCF7 cells assessed as accumulation at G0/G1 phase at 10 uM measured after 24 hrs by propidium iodide staining-based flow cytometry (reference value: 73.6%); assay type: functional
[9] = Cell cycle analysis in human MCF7 cells assessed as accumulation at SubG1 phase at 10 uM measured after 24 hrs by propidium iodide staining-based flow cytometry (reference value: 2.6%); assay type: functional
[10] = Cell cycle analysis in human MCF7 cells assessed as accumulation at S phase at 25 uM measured after 24 hrs by propidium iodide staining-based flow cytometry (reference value: 15.3%); assay type: functional
[11] = Cell cycle analysis in human MCF7 cells assessed as accumulation at G2/M phase at 5 uM measured after 24 hrs by propidium iodide staining-based flow cytometry (reference value: 8.9%); assay type: functional
[12] = Cell cycle analysis in human MCF7 cells assessed as accumulation at S phase at 5 uM measured after 24 hrs by propidium iodide staining-based flow cytometry (reference value: 15.3%); assay type: functional
[13] = Cell cycle analysis in human MCF7 cells assessed as accumulation at SubG1 phase at 1 uM measured after 24 hrs by propidium iodide staining-based flow cytometry (reference value: 2.6%); assay type: functional
[14] = Cell cycle analysis in human MCF7 cells assessed as accumulation at G0/G1 phase at 1 uM measured after 24 hrs by propidium iodide staining-based flow cytometry (reference value: 73.6%); assay type: functional
[15] = Cytotoxicity against human 184B5 cells assessed as reduction in cell viability measured after 72 hrs by MTT assay; assay type: toxicity, cell-based
[16] = Cell cycle arrest in human MCF7 cells assessed as sub-diploid cells at 18 uM measured after 48 hrs by propidium iodide staining-based flow cytometry (reference value: 1.9%); assay type: functional
[17] = Cell cycle analysis in human MCF7 cells assessed as accumulation at G0/G1 phase at 18 uM measured after 24 hrs by propidium iodide staining-based flow cytometry (reference value: 73.6%); assay type: functional
[18] = Cell cycle arrest in human MCF7 cells assessed as M1 quadrant cells at 18 uM pretreated with autophagy inhibitor wortmannin for 1 hr followed by compound addition measured after 48 hrs by propidium iodide staining-based flow cytometry assay (reference value: 98.1%); assay type: functional; set-up: scale not given: the % may be the effect or the level left
[19] = Cell cycle analysis in human MCF7 cells assessed as accumulation at G2/M phase at 18 uM measured after 24 hrs by propidium iodide staining-based flow cytometry (reference value: 8.9%); assay type: functional
[20] = Cytotoxicity against human MCF7 cells assessed as reduction in cell viability measured after 72 hrs by MTT assay; assay type: functional; settings: MCF7, 72 h
[21] = Cytotoxicity against human PC3 cells assessed as reduction in cell viability measured after 72 hrs by MTT assay; assay type: functional; settings: PC-3, 72 h
[22] = Cell cycle analysis in human MCF7 cells assessed as accumulation at G2/M phase at 1 uM measured after 24 hrs by propidium iodide staining-based flow cytometry (reference value: 8.9%); assay type: functional
[23] = Cell cycle analysis in human MCF7 cells assessed as accumulation at G0/G1 phase at 5 uM measured after 24 hrs by propidium iodide staining-based flow cytometry (reference value: 73.6%); assay type: functional
[24] = Cell cycle analysis in human MCF7 cells assessed as accumulation at G2/M phase at 25 uM measured after 24 hrs by propidium iodide staining-based flow cytometry (reference value: 8.9%); assay type: functional
[25] = Cell cycle analysis in human MCF7 cells assessed as accumulation at SubG1 phase at 18 uM measured after 24 hrs by propidium iodide staining-based flow cytometry (reference value: 2.6%); assay type: functional
[26] = Cell cycle analysis in human MCF7 cells assessed as accumulation at S phase at 18 uM measured after 24 hrs by propidium iodide staining-based flow cytometry (reference value: 15.3%); assay type: functional
[27] = Cell cycle analysis in human MCF7 cells assessed as accumulation at SubG1 phase at 25 uM measured after 24 hrs by propidium iodide staining-based flow cytometry (reference value: 2.6%); assay type: functional
[28] = Cell cycle arrest in human MCF7 cells assessed as M1 quadrant cells at 18 uM measured after 48 hrs by propidium iodide staining-based flow cytometry (reference value: 98.1%); assay type: functional
[29] = Cell cycle analysis in human MCF7 cells assessed as accumulation at G2/M phase at 10 uM measured after 24 hrs by propidium iodide staining-based flow cytometry (reference value: 8.9%); assay type: functional
MCF7 = assay: Selectivity index, ratio of GI50 for human 184B5 cells to GI50 for human MCF7 cells; assay type: functional
[30] = Cell cycle analysis in human MCF7 cells assessed as accumulation at S phase at 10 uM measured after 24 hrs by propidium iodide staining-based flow cytometry (reference value: 15.3%); assay type: functional
[31] = Cell cycle analysis in human MCF7 cells assessed as accumulation at S phase at 1 uM measured after 24 hrs by propidium iodide staining-based flow cytometry (reference value: 15.3%); assay type: functional
[32] = Cell cycle analysis in human MCF7 cells assessed as accumulation at G0/G1 phase at 25 uM measured after 24 hrs by propidium iodide staining-based flow cytometry (reference value: 73.6%); assay type: functional

COC[C@H]1OC(=O)c2coc3c2[C@@]1(C)C1=C(C3=O)[C@@H]2CCC(=O)[C@@]2(C)C[C@H]1OC(C)=O
Activity [1]: 6.2%
Activity [2]: 93.8%

Cc1noc(C)c1CSC#N
Activity [3]: > 60%
Activity [4]: 80.9%
Activity [5]: 19.1%
Activity [6]: 50.4%
Activity [7]: 3.3%
Activity [8]: 33.8%
Activity [9]: 3.4%
Activity [10]: 16.3%
Activity [11]: 13.2%
Activity [12]: 14.9%
Activity [13]: 2%
Activity [14]: 67.6%
GI50 at 72 h ([15]; 184B5 cells): 46.2 µM
LC50 ([15]; 184b5, 72 h): 99.5 µM
TGI ([15]; 184b5, 72 h): 74.2 µM
Activity [16]: 53.7%
Activity [17]: 18.4%
Activity [18]: 49.6%
Activity [19]: 66.1%
GI50 [20]: 4.8 µM
LC50 [20]: 84.9 µM
TGI [20]: 44.6 µM
GI50 [21]: 8 µM
LC50 (concentration lethal to 50% of cells) [21]: 21.9 µM
TGI [21]: 13.8 µM
Activity [22]: 8.9%
Activity [23]: 68.1%
Activity [24]: 25.8%
Activity [25]: 5.7%
Activity [26]: 9.9%
Activity [27]: 4.4%
Activity [28]: 46%
Activity [29]: 51.8%
RatioGI50 (MCF7): 9.6
Activity [30]: 11.6%
Activity [31]: 22.2%
Activity [32]: 54.6%
